{"source": "paper PMC9127750", "about": "“Structure-based design of CDC42 effector interaction inhibitors for the treatment of cancer” (Cell reports, 2022)", "test_system": "WM3248 melanoma cells, 486 antibodies", "assay": "Reverse phase protein arrays (RPPA)", "assay_type": "cell-based, Human", "description": "Pellets were snap frozen in liquid nitrogen and shipped to MD Anderson Cancer Center core RPPA facility for RPPA analysis (Table S5). Three biological replicates for each sample were generated.\nNomenclatures on the RPPA heatmaps: name_of_antibody.species_of_antibody.status_of_antibody. V - antibody validated; C - validation of antibody in progress; Q - antibody nonspecific; E – under evaluation; antibodies raised in M - mouse, G - goat, R - rabbit, or T - rat.", "note": "Where “and” joins values, the source holds several entries; their conditions need not be identical. Equal values may be shown once."}
{"compound": "CN(C)c1cccc(Nc2cc(-c3ccccc3)nc(C3CCNCC3)n2)c1", "note": "[ARN22089, N1,N1-dimethyl-N3-(6-phenyl-2-(piperidin-4-yl)pyrimidin-4-yl)benzene-1,3-diamine]", "values": [{"measurement": "Merlin.R.C Norm_20 Average", "setting": "level 20 vs 0", "result": 1.326}, {"measurement": "Midkine.R.V Norm_20 Average", "setting": "level 20 vs 0", "result": 0.903}, {"measurement": "Mitofusin.1.R.V Norm_20 Average", "setting": "level 20 vs 0", "result": 0.924}, {"measurement": "Mitofusin.2.R.V Norm_20 Average", "setting": "level 20 vs 0", "result": 0.929}, {"measurement": "Mnk1.R.V Norm_20 Average", "setting": "level 20 vs 0", "result": 0.909}, {"measurement": "mTOR.R.V Norm_20 Average", "setting": "level 20 vs 0", "result": 0.966}, {"measurement": "mTOR_pS2448.R.C Norm_20 Average", "setting": "level 20 vs 0", "result": 0.981}, {"measurement": "HLA.DQA1.R.V Norm_20", "setting": "level 20 vs 0, replicates", "result": 0.920}, {"measurement": "HLA.DR.DP.DQ.DX.R.C Norm_20", "setting": "level 20 vs 0, replicates", "result": "1.294 and 1.162"}, {"measurement": "HMHA1.R.V Norm_20", "setting": "level 20 vs 0, replicates", "result": "0.981 and 0.880 and 1.188"}, {"measurement": "HNRNPK.R.V Norm_20", "setting": "level 20 vs 0, replicates", "result": "0.984 and 1.119 and 0.871"}, {"measurement": "HSP27.M.C Norm_20", "setting": "level 20 vs 0, replicates", "result": "0.670 and 0.856 and 0.906"}, {"measurement": "HSP27_pS82.R.V Norm_20", "setting": "level 20 vs 0, replicates", "result": "0.842 and 0.885 and 1.155"}, {"measurement": "HSP60.R.V Norm_20", "setting": "level 20 vs 0, replicates", "result": "1.130 and 0.832 and 1.026"}, {"measurement": "HSP70.R.C Norm_20", "setting": "level 20 vs 0, replicates", "result": "1.062 and 1.459"}, {"measurement": "Hexokinase.I.R.C Norm_20", "setting": "level 20 vs 0, replicates", "result": "1.110 and 1.189 and 1.305"}, {"measurement": "Hexokinase.II.R.V Norm_20", "setting": "level 20 vs 0, replicates", "result": "1.291 and 0.878 and 1.104"}, {"measurement": "Hif.1αR.C Norm_20", "setting": "level 20 vs 0, replicates", "result": "1.195 and 0.879 and 1.078"}, {"measurement": "Histone.H3.R.V Norm_20", "setting": "level 20 vs 0, replicates", "result": "1.827 and 15.369 and 0.615"}, {"measurement": "Histone.H3_pS10.R.V Norm_20", "setting": "level 20 vs 0, replicates", "result": "1.077 and 5.500 and 0.823"}, {"measurement": "IDO.R.C Norm_20", "setting": "level 20 vs 0, replicates", "result": "0.970 and 0.836"}, {"measurement": "IGF1R_pY1135_Y1136.R.V Norm_20", "setting": "level 20 vs 0, replicates", "result": "1.013 and 0.925"}, {"measurement": "IGFBP2.R.V Norm_20", "setting": "level 20 vs 0, replicates", "result": "1.100 and 0.958 and 1.153"}, {"measurement": "IGFBP3.M.V Norm_20", "setting": "level 20 vs 0, replicates", "result": "0.795 and 0.982"}, {"measurement": "IGFRb.R.C Norm_20", "setting": "level 20 vs 0, replicates", "result": "1.223 and 1.234"}, {"measurement": "IL.6.R.C Norm_20", "setting": "level 20 vs 0, replicates", "result": "0.955 (2×) and 1.003"}, {"measurement": "IMP3.R.C Norm_20", "setting": "level 20 vs 0, replicates", "result": "0.919 and 1.030 and 0.952"}, {"measurement": "INPP4b.R.C Norm_20", "setting": "level 20 vs 0, replicates", "result": "0.903 and 0.986"}, {"measurement": "IR.b.R.C Norm_20", "setting": "level 20 vs 0, replicates", "result": "1.018 and 0.967 and 1.220"}, {"measurement": "IRF.1.R.V Norm_20", "setting": "level 20 vs 0, replicates", "result": "0.991 and 0.831 and 1.052"}, {"measurement": "IRF.3.R.V Norm_20", "setting": "level 20 vs 0, replicates", "result": "0.860 and 0.878 and 0.910"}, {"measurement": "IRS1.R.V Norm_20", "setting": "level 20 vs 0, replicates", "result": "1.064 and 1.027 and 1.060"}, {"measurement": "IRS2.R.C Norm_20", "setting": "level 20 vs 0, replicates", "result": "1.529 and 1.065"}, {"measurement": "JAB1.M.C Norm_20", "setting": "level 20 vs 0, replicates", "result": "0.904 and 0.945 and 1.061"}, {"measurement": "JNK2.R.V Norm_20", "setting": "level 20 vs 0, replicates", "result": "0.750 and 1.506"}, {"measurement": "JNK_pT183_Y185.R.C Norm_20", "setting": "level 20 vs 0, replicates", "result": "1.059 and 0.941 and 1.008"}, {"measurement": "Jagged1.R.V Norm_20", "setting": "level 20 vs 0, replicates", "result": "1.035 and 0.964 and 1.085"}, {"measurement": "Jak2.R.V Norm_20", "setting": "level 20 vs 0, replicates", "result": "1.132 and 0.972 and 1.009"}, {"measurement": "KAP1.R.V Norm_20", "setting": "level 20 vs 0, replicates", "result": "1.259 and 0.970 and 1.549"}, {"measurement": "KEAP1.R.V Norm_20", "setting": "level 20 vs 0, replicates", "result": "1.169 and 0.932 and 0.897"}, {"measurement": "LAD1.R.V Norm_20", "setting": "level 20 vs 0, replicates", "result": "0.881 and 0.761 and 1.249"}, {"measurement": "LC3A.B.R.C Norm_20", "setting": "level 20 vs 0, replicates", "result": "1.429 and 1.134 and 1.161"}, {"measurement": "LCN2.R.V Norm_20", "setting": "level 20 vs 0, replicates", "result": "2.531 and 1.008 and 1.326"}, {"measurement": "LDHA.R.C Norm_20", "setting": "level 20 vs 0, replicates", "result": "0.857 and 1.499 and 2.319"}, {"measurement": "LRP6_pS1490.R.V Norm_20", "setting": "level 20 vs 0, replicates", "result": 1.001}, {"measurement": "Lasu1.R.V Norm_20", "setting": "level 20 vs 0, replicates", "result": "1.199 and 1.294"}, {"measurement": "Lck.R.V Norm_20", "setting": "level 20 vs 0, replicates", "result": "1.370 and 1.163 and 1.379"}, {"measurement": "Lyn.R.V Norm_20", "setting": "level 20 vs 0, replicates", "result": "0.892 and 1.140 and 1.052"}, {"measurement": "MACC1.R.V Norm_20", "setting": "level 20 vs 0, replicates", "result": "0.920 and 0.933"}, {"measurement": "MAPK_pT202_Y204.R.C Norm_20", "setting": "level 20 vs 0, replicates", "result": "0.833 and 0.402 and 0.466"}, {"measurement": "MCT4.R.V Norm_20", "setting": "level 20 vs 0, replicates", "result": "1.030 and 0.799 and 1.149"}, {"measurement": "MDM2_pS166.R.V Norm_20", "setting": "level 20 vs 0, replicates", "result": "1.426 and 1.478 and 1.290"}, {"measurement": "MEK1.R.V Norm_20", "setting": "level 20 vs 0, replicates", "result": "1.117 and 2.580"}, {"measurement": "MEK1_pS217_S221.R.V Norm_20", "setting": "level 20 vs 0, replicates", "result": "0.743 and 0.841 and 1.347"}, {"measurement": "MEK2.R.V Norm_20", "setting": "level 20 vs 0, replicates", "result": "0.956 and 1.186"}, {"measurement": "MERIT40.R.C Norm_20", "setting": "level 20 vs 0, replicates", "result": "0.841 and 0.749 and 1.150"}, {"measurement": "MERIT40_pS29.R.V Norm_20", "setting": "level 20 vs 0, replicates", "result": "0.968 and 0.879 and 1.231"}, {"measurement": "METTL3.R.V Norm_20", "setting": "level 20 vs 0, replicates", "result": "1.164 and 1.324 and 1.250"}, {"measurement": "MIF.R.C Norm_20", "setting": "level 20 vs 0, replicates", "result": "0.869 and 0.900 and 0.906"}, {"measurement": "MIG6.R.V Norm_20", "setting": "level 20 vs 0, replicates", "result": "0.893 and 0.926 and 0.901"}, {"measurement": "MITF.R.V Norm_20", "setting": "level 20 vs 0, replicates", "result": "1.001 and 1.191 and 1.081"}, {"measurement": "MLH1.M.V Norm_20", "setting": "level 20 vs 0, replicates", "result": "0.708 and 0.840 and 1.119"}, {"measurement": "MLKL.R.V Norm_20", "setting": "level 20 vs 0, replicates", "result": "0.758 and 0.733"}, {"measurement": "MMP2.R.V Norm_20", "setting": "level 20 vs 0, replicates", "result": "0.895 and 0.974 and 0.934"}, {"measurement": "MMP14.R.V Norm_20", "setting": "level 20 vs 0, replicates", "result": "1.924 and 1.667 and 1.374"}, {"measurement": "MR1.M.C Norm_20", "setting": "level 20 vs 0, replicates", "result": "0.871 and 1.118 and 0.973"}, {"measurement": "MRAP.R.C Norm_20", "setting": "level 20 vs 0, replicates", "result": "1.035 and 1.214 and 1.082"}, {"measurement": "MSH2.R.C Norm_20", "setting": "level 20 vs 0, replicates", "result": "0.839 and 0.919 and 1.059"}, {"measurement": "MSH6.R.C Norm_20", "setting": "level 20 vs 0, replicates", "result": "1.343 and 1.387 and 1.258"}, {"measurement": "MSI2.R.C Norm_20", "setting": "level 20 vs 0, replicates", "result": "1.362 and 1.019"}, {"measurement": "MTCO1.M.V Norm_20", "setting": "level 20 vs 0, replicates", "result": "1.305 and 0.956 and 1.145"}, {"measurement": "MTSS1.M.C Norm_20", "setting": "level 20 vs 0, replicates", "result": "0.841 and 1.006 and 0.964"}, {"measurement": "Mcl.1.R.V Norm_20", "setting": "level 20 vs 0, replicates", "result": "0.748 and 0.609 and 0.905"}, {"measurement": "MelanA.R.C Norm_20", "setting": "level 20 vs 0, replicates", "result": "1.030 and 0.993 and 1.051"}, {"measurement": "Melanoma.gp100.R.C Norm_20", "setting": "level 20 vs 0, replicates", "result": "1.080 and 0.890"}, {"measurement": "Merlin.R.C Norm_20", "setting": "level 20 vs 0, replicates", "result": "1.344 and 1.329 and 1.306"}, {"measurement": "Midkine.R.V Norm_20", "setting": "level 20 vs 0, replicates", "result": "0.858 and 0.901"}, {"measurement": "Mitofusin.1.R.V Norm_20", "setting": "level 20 vs 0, replicates", "result": "0.931 and 0.783 and 1.058"}, {"measurement": "Mitofusin.2.R.V Norm_20", "setting": "level 20 vs 0, replicates", "result": "0.808 and 0.772 and 1.206"}, {"measurement": "Mnk1.R.V Norm_20", "setting": "level 20 vs 0, replicates", "result": "0.936 and 0.820 and 0.972"}, {"measurement": "mTOR.R.V Norm_20", "setting": "level 20 vs 0, replicates", "result": "0.878 and 0.940 and 1.079"}, {"measurement": "mTOR_pS2448.R.C Norm_20", "setting": "level 20 vs 0, replicates", "result": "0.856 and 0.896 and 1.190"}]}
